From the supplement of paper PMC8967900

Key:
Assay in all cases: selective drug sensitivity score (sDSS, relative to normal bone marrow) (sDSS (score)); higher = more potent and effective on the cell line relative to normal bone marrow cells
Details in all cases: 72 h
COG-LL-319h = system: COG-LL-319h
PF-382 = system: PF-382
TMD5 = system: TMD5
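Further: ALL cell lines in 384-well plates, five doses spanning 10,000-fold, each plate scaled between vehicle and 100 µmol/L benzalkonium chloride controls, sDSS an adapted area-under-curve metric.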

Compound | selective drug sensitivity score (COG-LL-319h) | selective drug sensitivity score (PF-382) | selective drug sensitivity score (TMD5)
COC12C(COC(N)=O)C3=C(C(=O)C(C)=C(N)C3=O)N1CC1NC12 (stereo in doubt) [Mitomycin_C] (top concentration 10000 nM) | 9.74 | -2.86 | -1.96
Cc1c(-c2c(-c3ccc(F)o3)sc3ncnc(O[C@H](Cc4ccccc4OCc4ccnn4CC(F)(F)F)C(=O)O)c23)ccc(OCCN2CCN(C)CC2)c1Cl (top concentration 1000 nM) | 15.8 | -7.74 | -7.74
Cc1ncc(Cl)cc1NCc1ccc(C(=O)N[C@@H](CC2CCCC2)C(=O)NC2CC2)s1 (top concentration 5000 nM) | 14.3 | -0.94 | -0.94
CCn1c(-c2nonc2N)nc2c(C#CC(C)(C)O)ncc(OC[C@H]3CCCNC3)c21 (top concentration 10000 nM) | 7.38 | 4.48 | -1.12
CN(c1ncccc1CNc1nc(Nc2ccc3c(c2)CC(=O)N3)ncc1C(F)(F)F)S(C)(=O)=O (top concentration 10000 nM) | 4.52 | -0.78 | -3.28
CNc1ncc2cc(-c3cc(NC(=O)NCCC(C)(C)C)c(F)cc3C)c(C)nc2n1 (top concentration 10000 nM) | 12.1 | 9.66 | 7.86
C[C@@]1(C(=O)Nc2ccc(F)nc2)CCCN1c1nc(Nc2cc(C3CC3)n[nH]2)c2cccn2n1 (top concentration 10000 nM) | 8.78 | 6.18 | -0.12
Cc1nc(Nc2n[nH]c3c2CN(C(=O)N[C@H](CN(C)C)c2ccccc2)C3(C)C)c2sccc2n1 (top concentration 10000 nM) | 4.28 | 1.98 | -7.92
Cn1cc(-c2[nH]c3cc(NC(=O)[C@H](N)C4CCCCC4)cc4c3c2C=NNC4=O)cn1 (top concentration 10000 nM) | 11.5 | 4.48 | -0.12
Cn1cc(-c2ccc(F)c(C(F)(F)F)c2)nc1C1CCN(c2ncnc3[nH]ncc23)CC1 (top concentration 10000 nM) | 3.76 | -0.14 | -0.14
O=C(Nc1ccc2[nH]nc(-c3ccncc3)c2c1)[C@@H]1CCN(CC(=O)N2CCN(c3ccc(-c4ncccn4)cc3)CC2)C1 (top concentration 10000 nM) | 2.16 | 0.56 | -0.34
CC(C)(C)c1cc(NC(=O)Nc2ccc(Oc3ccnc4[nH]c(=O)cnc34)cc2F)n(-c2ccccc2)n1 (top concentration 25000 nM) | -1.08 | -3.88 | 2.32
Nc1ncnc2c1nc(N)n2[C@@H]1O[C@H](CO)[C@@H](O)[C@H]1O [8-amino-adenosine] (top concentration 50000 nM) | 6.78 | 0.18 | 2.68
CC(C)[C@@H](CS(=O)(=O)C(C)C)N1C(=O)[C@@](C)(CC(=O)O)C[C@H](c2cccc(Cl)c2)[C@H]1c1ccc(Cl)cc1 [AMG-232] (top concentration 10000 nM) | 11.4 | -8.94 | 6.76
CC(C)[C@H](C(=O)Nc1ccc(C(=O)NO)cc1)c1ccccc1 [AR-42] (top concentration 10000 nM) | 10.8 | 5.78 | 5.28
O=C(Nc1c[nH]nc1-c1nc2ccc(CN3CCOCC3)cc2[nH]1)NC1CC1 [AT9283] (top concentration 1000 nM) | 11.3 | 7.72 | 7.32
CCN(CCO)CCCOc1ccc2c(Nc3cc(CC(=O)Nc4cccc(F)c4)[nH]n3)ncnc2c1 [AZD1152-HQPA] (top concentration 1000 nM) | 24.2 | 9.94 | 9.14
Cc1[nH]nc(C(F)(F)F)c1Cc1sc2c(c1C(=O)N1C[C@](C)(O)CO1)c(=O)n(C)c(=O)n2C(C)C [AZD3965] (top concentration 1000 nM) | 0 | 1.7 | 2.6
C[C@@H]1COCCN1c1cc(C2([S@](C)(=N)=O)CC2)nc(-c2cc[nH]c3nccc2-3)n1 [AZD6738] (top concentration 25000 nM) | 15.6 | 4.68 | 5.88
NC1(C(=O)N[C@@H](CCO)c2ccc(Cl)cc2)CCN(c2ncnc3[nH]ccc23)CC1 [AZD-5363] (top concentration 10000 nM) | 4.72 | 4.42 | 6.62
C[C@@H](Nc1cc(F)cc(F)c1)c1cc(C(=O)N(C)C)cc2c(=O)cc(N3CCOCC3)oc12 [AZD-8186] (top concentration 1000 nM) | 0.74 | 0.54 | -0.26

Compound | selective drug sensitivity score (COG-LL-319h) | selective drug sensitivity score (PF-382) | selective drug sensitivity score (TMD5)
COc1cccc2c1C(=O)c1c(O)c3c(c(O)c1C2=O)C[C@@](O)(/C(CO)=N/NC(=O)CCCCCN1C(=O)C=CC1=O)C[C@@H]3O[C@H]1C[C@H](N)[C@H](O)[C@H](C)O1 [Aldoxorubicin] (top concentration 1000 nM) | 14 | 3.24 | 0.34
COc1cc(Nc2ncc3c(n2)-c2ccc(Cl)cc2C(c2c(F)cccc2OC)=NC3)ccc1C(=O)O [Alisertib] (top concentration 10000 nM) | 23.3 | 14.3 | 11
Cc1nc(NC(=O)N2CCC[C@H]2C(N)=O)sc1-c1ccnc(C(C)(C)C(F)(F)F)c1 [Alpelisib] (top concentration 2500 nM) | 12.5 | 0.48 | -0.82
CCN(CC)CCNC(=O)c1c(C)[nH]c(/C=C2\C(=O)Nc3ccc(-c4csc(-c5ccccc5)n4)cc32)c1C [Amcasertib] (top concentration 10000 nM) | -0.1 | 2.7 | -1.7
COc1c(C)cnc(Cn2cnc3c(Cl)nc(N)nc32)c1C [BIIB021] (top concentration 10000 nM) | 1.78 | 5.78 | 1.58
O=C(/C=C/c1cccc(S(=O)(=O)Nc2ccccc2)c1)NO [Belinostat] (top concentration 10000 nM) | 11.8 | 8.4 | 6.3
Nc1cc(C(F)(F)F)c(-c2cc(N3CCOCC3)nc(N3CCOCC3)n2)cn1 [Buparlisib] (top concentration 10000 nM) | 4.58 | 5.38 | -1.82
CCS(=O)(=O)N1CCN(c2ccc(Nc3ncc(C(N)=O)c(NC4CC4)n3)cc2)CC1 [Cerdulatinib] (top concentration 10000 nM) | 2.14 | -5.16 | -4.46
CC(C)[C@H]1C(=O)N[C@@H](CCCNC(=N)N)C(=O)NCC(=O)N[C@@H](CC(=O)O)C(=O)N[C@H](Cc2ccccc2)C(=O)N1C [Cilengitide] (top concentration 10000 nM) | 0 | 0 | 7.5
CC(C)(C)c1nc(-c2cccc(NS(=O)(=O)c3c(F)cccc3F)c2F)c(-c2ccnc(N)n2)s1 [Dabrafenib] (top concentration 2500 nM) | -0.92 | 0.38 | 1.18
C[C@H]1O[C@@H](O[C@H]2[C@@H](O)C[C@H](O[C@H]3[C@@H](O)C[C@H](O[C@H]4CC[C@@]5(C)[C@H](CC[C@@H]6[C@@H]5C[C@@H](O)[C@]5(C)[C@@H](C7=CC(=O)OC7)CC[C@]65O)C4)O[C@@H]3C)O[C@@H]2C)C[C@H](O)[C@@H]1O [Digoxin] (top concentration 1000 nM) | 10.3 | 11.1 | 6.9
C[C@H](Nc1ncnc2nc[nH]c12)c1cc2cccc(Cl)c2c(=O)n1-c1ccccc1 [Duvelisib] (top concentration 500 nM) | 3.56 | -0.94 | -0.94
NC(=O)/C(=C/n1cnc(-c2cc(C(F)(F)F)cc(C(F)(F)F)c2)n1)c1cncnc1 [Eltanexor] (top concentration 10000 nM) | 8.46 | 8.36 | -1.84
COC(=O)N[C@@H](C)CNc1nccc(-c2cn(C(C)C)nc2-c2cc(Cl)cc(NS(C)(=O)=O)c2F)n1 [Encorafenib] (top concentration 1000 nM) | 0 | 1.5 | 0
Nc1ccccc1NC(=O)c1ccc(CNC(=O)OCc2cccnc2)cc1 [Entinostat] (top concentration 10000 nM) | 12.7 | 2.08 | 5.38
C#Cc1cccc(Nc2ncnc3cc(OCCOC)c(OCCOC)cc23)c1 [Erlotinib] (top concentration 10000 nM) | 16.2 | 0.46 | -0.34
O=C(Nc1nc2cccc(-c3ccc(CN4CCS(=O)(=O)CC4)cc3)n2n1)C1CC1 [Filgotinib] (top concentration 10000 nM) | -3.74 | -2.24 | 0.16
C[C@H]1C=C2C(=O)O[C@H]3CC[C@@H](C1)[C@@]23O [Galiellalactone] (top concentration 25000 nM) | 7.46 | 4.16 | 1.46
CN(C)C1CCN(C(=O)c2ccc(NC(=O)Nc3ccc(-c4nc(N5CCOCC5)nc(N5CCOCC5)n4)cc3)cc2)CC1 [Gedatolisib] (top concentration 1000 nM) | -0.04 | 5.06 | 0.66
Nc1ccn([C@@H]2O[C@H](CO)[C@@H](O)C2(F)F)c(=O)n1 [Gemcitabine] (top concentration 1000 nM) | 20.5 | 13.5 | -7.84
